In brackets after ≈: the same amount, converted by molar mass. Read-outs that look alike come from different tables or passages of the source.
What was measured:
[1] = design: species or system guinea pigs (Slc:Hertley); details: guinea pig, in vivo
Procedure: Guinea pig maximization test (GPMT) which is a widely accepted model for delayed antigenicity was conducted according to the method of Mugnusson et al. (J. invest. Dermatol., 52, 1969) by using a cutaneous sensitization concentration of 1% and a patch sensitization and induction concentration of 10%. At day 1, the animal was sensitized by cutaneously administering the test substance (the quinolone compounds and the control: vehicle, vaseline) (1% solution in physiological saline+FCA emulsion) at the back of the head of the shaved guinea pigs (7 week old male Slc:Hertley). At day 7, lauryl sodium sulfate (SLC) was applied for stimulus (adjuvant treatment), and on the next day, the test substance coated on a wax paper was patched onto the shaved skin to for sealed sensitization, and after 48 hours (at day 10), the waxed paper was removed. The skin reaction was observed upon the removal. On day 22, the test substance (10%) was patched onto the anterior side of the body for induction, and the induction patching was removed after 24 hours. On the next day (at day 24) and the next day (at day 25), the skin reaction was evaluated according to the description of the document as mentioned above. Erythema and edema were scored, and the case with the total score of 2 or higher was evaluated to be positive with the maximum of the score being 7.

[2] = male, Crj:CD IGS, rat, in vivo, po, 5 mg/kg
Procedure: (§1) The Comparative compound was also evaluated by the same procedure.
(§2) The test substance was orally administered to fasted rats (7 week old male Crj:CD IGS rats purchased from Charles River Laboratories Japan, Inc.) at a dose of 5 mg/kg.
(§3) Animals of absorption test group (3 animals per group) were sacrificed by bleeding under etherization at 0.25, 0.5, 1, 2, 4, and 8 hours after the drug administration, and blood, lever, kidney, and lung were collected. The blood was centrifuged (3000 rpm×15 minutes, 4° C.) after coagulation to collect serum. Tissue was homogenized after adding 3 to 5 mL of 0.1 mol/l phosphate buffer (pH 7.0), and the supernatant was collected from the homogenate (3000 rpm×15 minutes, 4° C.).
(§4) Animals of excretion test group (3 animals per group) were placed in a metabolic cage, and the urine of 0 to 4 hours and 4 to 24 hours after the administration was collected in a water-cooled container. Simultaneously with the collection of the urine, the cage was also washed with about 15 mL of 0.1 mol/l phosphate buffer (pH 7.0) to collect the urine attached to the cage. For evaluation of conjugates such as glucuronide, the collected sample was also aliquoted and hydrolyzed with an equal amount of 1 mol/l aqueous solution of sodium hydroxide, and the hydrolysate was neutralized with 0.5 mol/l hydrochloric acid and measured for its concentration. The concentration was measured by LC-MS/MS method.
(§5) Pharmacokinetic parameters of the each drug in rat were calculated by from the time course of the average concentration by using pharmacokinetic analysis software PSAG-CP (AS Medica Inc.) in a manner not dependent on the model animal.

[3] = female, cynomolgus monkey, in vivo, 5 mg/kg
in vivo = details: female, cynomolgus monkey, po, 5 mg/kg
hERG K+ channel = hERG K+ channel (Homo sapiens, UniProt Q12809); test: hERG-K^+ channel blocking effect
Sequence of hERG K+ channel (Q12809 whole entry): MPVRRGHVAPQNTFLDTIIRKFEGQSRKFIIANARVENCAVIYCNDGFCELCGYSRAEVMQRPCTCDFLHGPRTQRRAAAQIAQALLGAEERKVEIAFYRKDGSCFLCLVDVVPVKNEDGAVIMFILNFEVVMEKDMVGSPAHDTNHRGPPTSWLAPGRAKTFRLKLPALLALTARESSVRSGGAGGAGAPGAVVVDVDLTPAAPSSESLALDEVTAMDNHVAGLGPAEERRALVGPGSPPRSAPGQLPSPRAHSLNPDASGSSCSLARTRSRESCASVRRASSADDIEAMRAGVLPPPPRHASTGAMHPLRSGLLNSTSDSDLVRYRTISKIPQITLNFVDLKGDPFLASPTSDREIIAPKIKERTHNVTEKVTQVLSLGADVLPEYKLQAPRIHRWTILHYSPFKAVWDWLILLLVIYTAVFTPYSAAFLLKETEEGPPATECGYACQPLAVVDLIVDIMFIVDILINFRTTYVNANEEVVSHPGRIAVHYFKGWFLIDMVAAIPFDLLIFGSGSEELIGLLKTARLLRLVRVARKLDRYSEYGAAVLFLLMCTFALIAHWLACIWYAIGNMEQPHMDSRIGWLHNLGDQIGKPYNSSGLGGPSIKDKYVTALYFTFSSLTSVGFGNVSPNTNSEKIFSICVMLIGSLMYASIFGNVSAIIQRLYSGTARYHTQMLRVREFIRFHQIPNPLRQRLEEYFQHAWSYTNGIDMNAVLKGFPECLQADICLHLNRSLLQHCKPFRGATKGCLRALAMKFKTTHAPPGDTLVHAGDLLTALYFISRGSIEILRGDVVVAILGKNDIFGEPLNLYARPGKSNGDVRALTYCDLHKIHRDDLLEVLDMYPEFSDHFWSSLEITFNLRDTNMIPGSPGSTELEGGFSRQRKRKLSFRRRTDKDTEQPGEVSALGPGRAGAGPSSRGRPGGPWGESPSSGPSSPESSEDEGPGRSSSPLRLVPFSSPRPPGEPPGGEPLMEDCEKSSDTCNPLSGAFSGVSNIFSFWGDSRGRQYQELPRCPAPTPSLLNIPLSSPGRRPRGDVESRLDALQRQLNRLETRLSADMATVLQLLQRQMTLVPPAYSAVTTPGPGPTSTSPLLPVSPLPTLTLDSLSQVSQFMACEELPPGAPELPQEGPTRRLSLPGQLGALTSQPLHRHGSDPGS

E. coli NIHJ = test: antibacterial activity (MIC), standard method of Japanese Society of Chemotherapy; details: Escherichia coli
P. vulgaris, 08601 = test: as above; details: Proteus vulgaris, 08601, P. vulgaris
P. aeruginosa, 32104 = test: as above; details: Pseudomonas aeruginosa
P. aeruginosa, 32121 = test: as above; details: Pseudomonas aeruginosa
S. aureus, 209P = test: as above; details: Staphylococcus aureus
S. epidermidis, 56500 = test: as above; details: Staphylococcus epidermidis, 56500, S. epidermidis
E. faecalis, ATCC 19433 = test: as above; details: Enterococcus faecalis, ATCC19433, E. faecalis
[4] = test system: S. aureus, 87037 (LVFX-resistant MRSA); test: as above; details: Staphylococcus aureus, MRSA, S. aureus, 87037 (LVFX-resistant MRSA)
[5] = test system: S. pneumoniae, J24 (penicillin-intermediate resistant bacteria); test: as above; details: Streptococcus pneumoniae
[6] = pharmacokinetics in rat (concentration in blood and organs, urine excretion) after oral administration; details: fasted rat, oral 5 mg/kg;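 note: fasted 7-week-old rats, three per group, tissue sampled up to 8 h post-dose and urine collected over 0–24 h, with conjugates measured after alkaline hydrolysis, concentrations by LC-MS/MS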
Procedure: as §1, §2, §3, §4, §5

COc1c(N2C[C@@H]3CCCN[C@@H]3C2)c(F)cc2c(=O)c(C(=O)O)cn(C3CC3)c12 [MFLX, moxifloxacin, reference compound]
Evaluation in GPMT [1]: Negative
Average score in GPMT ([1]; male, Slc:Hertley): 0
Recovery (%) in urine in relation to the amount administered, Recovery (%) including conjugate [2]: 30.8%
Serum Cmax (0.25 h) [2]: 1490 ng/mL
Recovery (%) in urine in relation to the amount administered, Recovery (%) including conjugate [3]: 12.2%
Serum Cmax ([3]; po): 1030 ng/mL
AUC(0-t) (in vivo): 6640 ng·h/mL
inhibition at 30 µM (hERG K+ channel): 33.9 ± 8.3%
inhibition at 100 µM (hERG K+ channel): 44.6 ± 10.2%
inhibition at 300 µM (hERG K+ channel): 69.9 ± 8.3%
MIC (E. coli NIHJ): 0.012 µg/mL (≈ 0.0299 µM)
MIC (P. vulgaris, 08601): 0.025 µg/mL (≈ 0.0623 µM)
MIC (P. aeruginosa, 32104): 0.39 µg/mL (≈ 0.972 µM)
MIC (P. aeruginosa, 32121): 0.2 µg/mL (≈ 0.498 µM)
MIC (S. aureus, 209P): 0.05 µg/mL (≈ 0.125 µM)
MIC (S. epidermidis, 56500): 0.2 µg/mL (≈ 0.498 µM)
MIC (E. faecalis, ATCC 19433): 0.2 µg/mL (≈ 0.498 µM)
MIC [4]: 1.56 µg/mL (≈ 3.89 µM)
MIC [5]: 0.1 µg/mL (≈ 0.249 µM)
Tissue Cmax, Lung [6]: 4.69 µg/g

— patent publication US7563805B2, “Tri-, tetra-substituted-3-aminopyrrolidine derivative” (Daiichi Pharmaceutical Co., Ltd., priority 2005, dated 2009)
